In patent US20250320193A1, “OXOISOINDOLINYL SUBSTITUTED PIPERIDINEDIONE DERIVATIVE AND USE THEREOF” (GLUETACS THERAPEUTICS (SHANGHAI) CO., LTD., priority 2022, published 2025) one finds IC50 data, which are given here for 22 compounds.

SMILES strings stand for the structures.

Sequence of human Cereblon WT GST-tagged protein (Q96SW2 whole entry): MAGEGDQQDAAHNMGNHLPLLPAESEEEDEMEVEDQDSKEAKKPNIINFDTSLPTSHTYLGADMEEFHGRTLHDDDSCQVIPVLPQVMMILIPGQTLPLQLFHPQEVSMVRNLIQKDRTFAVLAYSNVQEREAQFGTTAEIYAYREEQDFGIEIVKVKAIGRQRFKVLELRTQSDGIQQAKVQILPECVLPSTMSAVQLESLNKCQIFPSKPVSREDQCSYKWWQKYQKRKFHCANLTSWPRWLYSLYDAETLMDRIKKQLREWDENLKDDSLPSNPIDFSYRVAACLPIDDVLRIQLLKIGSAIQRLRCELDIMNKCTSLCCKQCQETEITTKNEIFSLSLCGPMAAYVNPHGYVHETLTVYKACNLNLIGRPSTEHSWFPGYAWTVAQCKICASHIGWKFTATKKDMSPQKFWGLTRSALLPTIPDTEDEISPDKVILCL

This assay has as its target human Cereblon WT GST-tagged protein (Homo sapiens (Human), UniProt Q96SW2). As to the kind of experiment: CRBN-binding affinity, HTRF (CEREBLON BINDING kit, CISBIO). To be noted: HTRF inhibitory activity. As to the method: I. Determination of CRBN-binding affinity of compounds of the present disclosure:
The CEREBLON BINDING kits (specification: 10,000 tests; product number: Catalog #64BDCRBNPEH; CISBIO company) was used to determine the CRBN binding ability of the compounds to be tested through a HTRF method (homogeneous time-resolved fluorescence). The specific methods are as follows: • 1. […] Then, 2.5 μL of human Cereblon WT GST-tagged protein solution was added to each well. Finally, 5 μL of the thoroughly mixed Thalidomide-Red reagent and GST Eu antibody working solution were added to each of the aforementioned wells. […] The blank control wells were sequentially added with 2.5 μL of diluent #9 (1X) solution, 2.5 μL of PROTAC binding buffer, and 5 μL of thoroughly mixed Thalidomide-Red reagent and GST Eu antibody working solution. • 4.
The corresponding CRBN binding inhibition rate was calculated using the following method: […]
OD 620 nmcompound is the absorbance value of each well of the compounds to be tested of the present disclosure at an emission wavelength of 620 nm. […] OD 620 nmcontrol is the absorbance value of the blank control well at an emission wavelength of 620 nm. […] OD 620 nmStd0 is the absorbance value of the solvent control well at an emission wavelength of 620 nm.
(In general: In TR-FRET formats the signal depends on donor and acceptor labels being close together.)
Compound `O=C1CCC(N2Cc3cc(N4CC5CCC(C4)N5C(c4ccccc4)c4ccccc4)ccc3C2=O)C(=O)N1` (stereo not shown) [GT-05865, 3-(5-(8-benzhydryl-3,8-diazabicyclo[3.2.1]octan-3-yl)-1-oxoisoindolin-2-yl)piperidine-2,6-dione] yielded an IC50 of 0.5 to 1 µM. With `O=C1CCC(N2Cc3cc(-c4ccc(CN5CCN(C(c6ccccc6)c6ccccc6)CC5)cc4)ccc3C2=O)C(=O)N1` (stereo not shown) [GT-05867, 3-(5-(4-((4-benzhydrylpiperazin-1-yl)methyl)phenyl)-1-oxoisoindolin-2-yl)piperidine-2,6-dione] the figure was 1 to 1.9 µM; with `O=C1CCC(N2Cc3cc(C(=O)N4CCN(C(c5ccc(Cl)cc5)c5ccc(Cl)cc5)CC4)cc(F)c3C2=O)C(=O)N1` (stereo not shown) [GT-05887, 3-(5-(4-(bis(4-chlorophenyl)methyl)piperazine-1-carbonyl)-7-fluoro-1-oxoisoindolin-2-yl)piperidine-2,6-dione], 1 to 1.9 µM; with `O=C1CCC(N2Cc3ccc(C(=O)N4CCN(C(c5ccc(Cl)cc5)c5ccc(Cl)cc5)CC4)cc3C2=O)C(=O)N1` (stereo not shown) [GT-05888, 3-(6-(4-(bis(4-chlorophenyl)methyl)piperazine-1-carbonyl)-1-oxoisoindolin-2-yl)piperidine-2,6-dione], 1 to 1.9 µM. Take `O=C1CCC(N2Cc3cc(CN4C[C@@H]5C[C@H]4CN5C(c4ccccc4)c4ccccc4)cc(F)c3C2=O)C(=O)N1` (stereo partly drawn) [GT-05895, 3-(5-(((1S,4S)-5-benzhydryl-2,5-diazabicyclo[2.2.1]heptan-2-yl)methyl)-7-fluoro-1-oxoisoindolin-2-yl)piperidine-2,6-dione]: the 50% inhibitory concentration (IC50) was < 0.5 µM. The compound `O=C1CCC(N2Cc3cc(CN4CC5CCC(C4)N5C(c4ccccc4)c4ccccc4)c(F)cc3C2=O)C(=O)N1` (stereo not shown) [GT-05896, 3-(5-((8-benzhydryl-3,8-diazabicyclo[3.2.1]octan-3-yl)methyl)-6-fluoro-1-oxoisoindolin-2-yl)piperidine-2,6-dione] yielded an IC50 of 0.5 to 1 µM. Under `O=C1CCC(N2Cc3cc(CN4CC5CCC(C4)N5C(c4ccccc4)c4ccccc4)cc(F)c3C2=O)C(=O)N1` (stereo not shown) [GT-05897, 3-(5-((8-benzhydryl-3,8-diazabicyclo[3.2.1]octan-3-yl)methyl)-7-fluoro-1-oxoisoindolin-2-yl)piperidine-2,6-dione] stands 0.5 to 1 µM.

Regarding `O=C1CCC(N2Cc3cc(CN4CC5(CCN(C(c6ccccc6)c6ccccc6)CC5)C4)ccc3C2=O)C(=O)N1` (stereo not shown) [GT-05901, 3-(5-((7-benzhydryl-2,7-diazaspiro[3.5]nonan-2-yl)methyl)-1-oxoisoindolin-2-yl)piperidine-2,6-dione], the IC50 is < 0.5 µM. `O=C1CCC(N2Cc3c(ccc(CN4CC5(CCN(C(c6ccccc6)c6ccccc6)CC5)C4)c3F)C2=O)C(=O)N1` (stereo not shown) [GT-05902, 3-(5-((7-benzhydryl-2,7-diazaspiro[3.5]nonan-2-yl)methyl)-4-fluoro-1-oxoisoindolin-2-yl)piperidine-2,6-dione]: the IC50 lay in the range of 0.5 to 1 µM. Compound `O=C1CCC(N2Cc3cc(CN4CC5(CCN(C(c6ccccc6)c6ccccc6)CC5)C4)c(F)cc3C2=O)C(=O)N1` (stereo not shown) [GT-05903, 3-(5-((7-benzhydryl-2,7-diazaspiro[3.5]nonan-2-yl)methyl)-6-fluoro-1-oxoisoindolin-2-yl)piperidine-2,6-dione] gave an IC50 of 0.5 to 1 µM. Under `O=C1CCC(N2Cc3cc(CN4CC5(CCN(C(c6ccccc6)c6ccccc6)CC5)C4)cc(F)c3C2=O)C(=O)N1` (stereo not shown) [GT-05904, 3-(5-((7-benzhydryl-2,7-diazaspiro[3.5]nonan-2-yl)methyl)-7-fluoro-1-oxoisoindolin-2-yl)piperidine-2,6-dione] stands 0.5 to 1 µM. Under `O=C1CCC(N2Cc3cc(C(=O)N4C5CC4CN(C(c4ccccc4)c4ccccc4)C5)cc(F)c3C2=O)C(=O)N1` (stereo not shown) [GT-05916, 3-(5-(3-benzhydryl-3,6-diazabicyclo[3.1.1]heptane-6-carbonyl)-7-fluoro-1-oxoisoindolin-2-yl)piperidine-2,6-dione] stands < 0.5 µM.

`O=C1CCC(N2C(=O)c3ccc(C(=O)N4C5CC4CN(C(c4ccccc4)c4ccccc4)C5)cc3C2=O)C(=O)N1` (stereo not shown) [GT-05918, 5-(3-benzhydryl-3,6-diazabicyclo[3.1.1]heptane-6-carbonyl)-2-(2,6-dioxopiperidin-3-yl) isoindoline-1,3-dione] yielded an IC50 of 1 to 1.9 µM. Under `CC1CN(C(c2ccccc2)c2ccccc2)CC(C)N1C(=O)c1cc(F)c2c(c1)CN(C1CCC(=O)NC1=O)C2=O` (stereo not shown) [GT-05921, 3-(5-(4-benzhydryl-2,6-dimethylpiperazine-1-carbonyl)-7-fluoro-1-oxoisoindolin-2-yl)piperidine-2,6-dione] stands 0.5 to 1 µM.

The compound `O=C1CCC(N2C(=O)c3cc(F)c(N4CC5CCC4CN5C(c4ccccc4)c4ccccc4)cc3C2=O)C(=O)N1` (stereo not shown) [GT-05936, 5-(5-benzhydryl-2,5-diazabicyclo[2.2.2]octan-2-yl)-2-(2,6-dioxopiperidin-3-yl)-6-fluoroisoindoline-1,3-dione] returned an IC50 of 0.5 to 1 µM.

`O=C1CCC(N2Cc3cc(CN4C[C@H]5C[C@@H]4CN5C(c4ccccc4)c4ccccc4)c(F)cc3C2=O)C(=O)N1` (stereo partly drawn) [GT-05958, 3-(5-(((1R,4R)-5-benzhydryl-2,5-diazabicyclo[2.2.1]heptan-2-yl)methyl)-6-fluoro-1-oxoisoindolin-2-yl)piperidine-2,6-dione] yielded an IC50 of 0.5 to 1 µM.

Take `O=C1CCC(N2Cc3cc(CN4CC5CCC4CN5C(c4ccccc4)c4ccccc4)cc(F)c3C2=O)C(=O)N1` (stereo not shown) [GT-05964, 3-(5-((5-benzhydryl-2,5-diazabicyclo[2.2.2]octan-2-yl)methyl)-7-fluoro-1-oxoisoindolin-2-yl)piperidine-2,6-dione]: the concentration for half-maximal inhibition (IC50) fell in the range of 0.5 to 1 µM.

`O=C1CCC(N2Cc3cc(CN4CCC5(CCN(C(c6ccccc6)c6ccccc6)CC5)C4)ccc3C2=O)C(=O)N1` (stereo not shown) [GT-05969, 3-(5-((8-benzhydryl-2,8-diazaspiro[4.5]decan-2-yl)methyl)-1-oxoisoindolin-2-yl)piperidine-2,6-dione] registered an IC50 of 1 to 1.9 µM. Turning to `O=C1CCC(N2Cc3cc(CN4CCC5(CCN(C(c6ccccc6)c6ccccc6)CC5)C4)cc(F)c3C2=O)C(=O)N1` (stereo not shown) [GT-05972, 3-(5-((8-benzhydryl-2,8-diazaspiro[4.5]decan-2-yl)methyl)-7-fluoro-1-oxoisoindolin-2-yl)piperidine-2,6-dione], the IC50 fell in the range of 1 to 1.9 µM. With `O=C1CCC(N2Cc3cc(C(=O)N4C[C@@H]5C[C@H]4CN5C(c4ccccc4)c4ccccc4)ccc3C2=O)C(=O)N1` (stereo partly drawn) [GT-05977, 3-(5-((1S,4S)-5-benzhydryl-2,5-diazabicyclo[2.2.1]heptane-2-carbonyl)-1-oxoisoindolin-2-yl)piperidine-2,6-dione] the figure was 0.5 to 1 µM; with `O=C1CCC(N2Cc3cc(C(=O)N4C[C@@H]5C[C@H]4CN5C(c4ccccc4)c4ccccc4)cc(F)c3C2=O)C(=O)N1` (stereo partly drawn) [GT-05978, 3-(5-((1S,4S)-5-benzhydryl-2,5-diazabicyclo[2.2.1]heptane-2-carbonyl)-7-fluoro-1-oxoisoindolin-2-yl)piperidine-2,6-dione], 1 to 1.9 µM; with `O=C1CCC(N2Cc3cc(C(=O)N4CC5CCC(C4)N5C(c4ccccc4)c4ccccc4)cc(F)c3C2=O)C(=O)N1` (stereo not shown) [GT-05981, 3-(5-(8-benzhydryl-3,8-diazabicyclo[3.2.1]octane-3-carbonyl)-7-fluoro-1-oxoisoindolin-2-yl)piperidine-2,6-dione], 0.5 to 1 µM.

Broadly, the IC50 is the concentration needed to halve the response being measured.
